Reference: publication PMC6199744, “Development of Chemical Proteomics for the Folateome and Analysis of the Kinetoplastid Folateome” (ACS Infectious Diseases, 2018)
Where “and” joins values, the source holds several entries; their conditions need not be identical. Equal entries are not always repeated. Where two headings read alike, the source gives them in different places.

Tested on: L. major lysate proteins
Experiment: Multitargeted bead mixture chemoproteomics, single concentration competition, proteome-wide
Assay type: binding
Settings: for fold change: vehicle control = 1

Nc1nc2c(c(=O)[nH]1)N(C=O)C(CNc1ccc(C(=O)N[C@@H](CCC(=O)O)C(=O)O)cc1)CN2 (some centres unmarked) [LEU, leucovorin]
fold change relative to vehicle control: 1.05 and 1.2 and 1.04 | fold change vs vehicle control: 0.97 and 1.04 | fold change vs vehicle control (protein CLI00016468.1 KINETOPLASTID MEMBRANE PROTEIN-11): 0.87 | fold change vs vehicle control (protein LINJ.03.0240 RIBOSOMAL PROTEIN L38, PUTATIVE): 0.99 | fold change vs vehicle control (protein LINJ.11.0780 40S RIBOSOMAL PROTEIN S21, PUTATIVE): 1.06 | fold change (protein LINJ.11.0960 40S RIBOSOMAL PROTEIN S5): 1.08 | fold change vs vehicle control (protein LINJ.13.0990 PROTEASOME REGULATORY ATPASE SUBUNIT 2, PUTATIVE): 0.99 | fold change vs vehicle control (protein LINJ.15.0330 RIBONUCLEOPROTEIN P18, MIT[…], PUTATIVE): 1.01 | fold change (protein LINJ.19.0090 FIBRILLARIN, PUTATIVE): 0.98 | fold change relative to vehicle control (protein LINJ.23.0860, 3-KETOACYL-COA THIOLASE, PUTATIVE): 1.25 | fold change relative to vehicle control (protein LINJ.24.2300, 60S RIBOSOMAL PROTEIN L12, PUTATIVE): 1.07 | fold change vs vehicle control (protein LINJ.25.2230 SUCCINYL-COA […] SUBUNIT, PUTATIVE): 1.12 | fold change vs vehicle control (protein LINJ.26.1630 40S RIBOSOMAL PROTEIN S33, PUTATIVE): 0.97 | fold change vs vehicle control (protein LINJ.28.1100 RIBOSOMAL PROTEIN S20, PUTATIVE): 0.97 | fold change relative to vehicle control (protein LINJ.28.1940, R[…] A, 51KDA SUBUNIT, PUTATIVE): 1.01 | fold change (protein LINJ.28.2280 DYNEIN LIGHT CHAIN LC6, FLAGELLAR OUTER ARM, PUTATIVE): 0.84 | fold change (protein LINJ.28.2870 PROTEIN PHOSPHATASE 4 CATALYTIC SUBUNIT, PUTATIVE): 0.86 | fold change relative to vehicle control (protein LINJ.31.1600, […] OXIDASE VIII (COX VIII), PUTATIVE): 0.98 | fold change relative to vehicle control (protein LINJ.33.1730, CYCLOPHILIN 4, PUTATIVE): 1.85 | fold change vs vehicle control (protein LINJ.34.0670 PROTEASOME REGULATORY NON-ATP-ASE SUBUNIT 11, PUTATIVE,19S PROTEASOME REGULATORY SUBUNIT): 0.93 | fold change vs vehicle control (protein LINJ.36.0780 PROTEIN KINASE, PUTATIVE,MITOGEN-ACTIVATED PROTEIN KINASE, PUTATIVE): 0.84 | fold change relative to vehicle control (protein LINJ.36.3960, BASIC TRANSCRIPTION FACTOR 3A, PUTATIVE): 2.31 | fold change relative to vehicle control (protein LINJ.36.4080, HY[…], CONSERVED): 1.26 | fold change (protein LINJ.36.4180 HS1VU COMPLEX PROTEOLYTIC SUBUNIT-LIKE): 0.87 | fold change vs vehicle control (protein LINJ.[…] LONG-CHAIN-FATTY-ACID-COA LIGASE, PUTATIVE): 1.05 | fold change (protein LMJF.01.0570 TRIC[…], PUTATIVE): 0.89 | fold change relative to vehicle control (protein LMJF.03.0200, DELTA-1-PYRROLINE-5-CARBOXYLATE DEHYDROGENASE, PUTATIVE): 1.13 | fold change (protein LMJF.03.0230 LONG CHAIN FATTY ACYL COA SYNTHETASE, PUTATIVE): 0.93 | fold change (protein LMJF.03.0980 ELONGATION INITIATION FACTOR 2 ALPHA SUBUNIT, PUTATIVE): 1 | fold change vs vehicle control (protein LMJF.04.0630 HY[…], CONSERVED): 1.02 | fold change vs vehicle control (protein LMJF.04.1230 actin): 0.94 | fold change (protein LMJF.05.0100 PHOSPHOPROTEIN PHOSPHATASE, PUTATIVE): 0.74 | fold change (protein LMJF.05.0280 PROTEIN TYROSINE PHOSPHATASE, PUTATIVE): 0.85 | fold change (protein LMJF.05.0510 ATPASE ALPHA SUBUNIT): 1 | fold change (protein LMJF.05.1040 STOMATIN-LIKE PROTEIN): 0.94 | fold change (protein LMJF.06.0650 LANOSTEROL SYNTHASE, PUTATIVE): 0.97 | fold change vs vehicle control (protein LMJF.07.0700 TOPOISOMERASE-RELATED FUNCTION PROTEIN-LIKE PROTEIN): 1.01 | fold change (protein LMJF.07.1000 RNA BINDING PROTEIN-LIKE PROTEIN): 1.02 | fold change relative to vehicle control (protein LMJF.07.1140, PEPTIDE METHIONINE SULFOXIDE REDUCTASE-LIKE): 1.3 | fold change (protein LMJF.08.0510 RIBOSE-PHOSPHATE PYROPHOSPHOKINASE, PUTATIVE): 0.82 | fold change vs vehicle control (protein LMJF.08.0550 T[…]-LIKE PROTEIN): 1.05 | fold change relative to vehicle control (protein LMJF.08.1030, cathepsin L-like protease): 1.06 | fold change vs vehicle control (protein LMJF.08.1100 HYPOTHETICAL PROTEIN, CONSERVED): 0.91 | fold change vs vehicle control (protein LMJF.09.1010 HYPOTHETICAL PROTEIN, CONSERVED): 0.98 | fold change relative to vehicle control (protein LMJF.09.1120, MIT[…] BINDING PROTEIN 2,MRP2, GBP25): 1.22 | fold change vs vehicle control (protein LMJF.09.1260 HY[…], CONSERVED): 1.02 | fold change (protein LMJF.10.0210 NUCLEOLAR PROTEIN, PUTATIVE): 0.98 | fold change vs vehicle control (protein LMJF.10.0310 PROTEIN TRANSPORT PROTEIN SEC23, PUTATIVE): 1.08 | fold change (protein LMJF.11.0590 3-[…]-COA C[…] SUBUNIT, PUTATIVE): 0.98 | fold change relative to vehicle control (protein LMJF.11.0630, AMINOPEPTIDASE, PUTATIVE,METALLO-PEPTIDASE, CLAN MF, FAMILY M17): 1.23 | fold change vs vehicle control (protein LMJF.11.1050 PRETRANSLOCATION PROTEIN, ALPHA SUBUNIT, PUTATIVE,SEC61-LIKE (PRETRANSLOCATION PROCESS) PROTEIN, PUTATIVE): 0.89 | fold change (protein LMJF.11.1160 PROTEIN TRANSPORT PROTEIN SEC31, PUTATIVE): 0.83 | fold change (protein LMJF.12.0030 PROTEASOME BETA-1 SUBUNIT, PUTATIVE): 0.95 | fold change vs vehicle control (protein LMJF.12.0210 […] […]1L8 3, PUTATIVE): 1.05 | fold change relative to vehicle control (protein LMJF.12.0530, GLUCOSE-6-PHOSPHATE ISOMERASE): 1.53 | fold change (protein LMJF.12.0630 ALANINE AMINOTRANSFERASE): 0.86 | fold change vs vehicle control (protein LMJF.13.1230 40S RIBOSOMAL PROTEIN S4, PUTATIVE): 1.16 | fold change vs vehicle control (protein LMJF.14.0310 […] 3 SUBUNIT, PUTATIVE): 1.04 | fold change (protein LMJF.14.0660 FATTY ACID ELONGASE, PUTATIVE): 0.88 | fold change (protein LMJF.14.0670 FATTY ACID ELONGASE, PUTATIVE): 0.9 | fold change vs vehicle control (protein LMJF.14.0680 FATTY ACID ELONGASE, PUTATIVE): 1.06 | fold change (protein LMJF.14.0990 ADP/ATP MITOCHONDRIAL CARRIER-LIKE PROTEIN): 0.97 | fold change vs vehicle control (protein LMJF.14.1160 ENOLASE): 1.01 | fold change (protein LMJF.14.1440 HYPOTHETICAL PROTEIN, CONSERVED (cytoskeleton associated protein, putative)): 0.9 | fold change (protein LMJF.15.0040 HYPOTHETICAL PROTEIN, CONSERVED (Possible lysine decarboxylase, putative)): 0.89
